Data on seven compounds can be found in patent publication US7091207B2, “Method of treating myocardial infarction with PDE-5 inhibitors” (Virginia Commonwealth University, priority 2002, dated 2006).

Marks after values point to notes of the source that are not given here.

Data set [1] concerns mouse heart, global I-R injury. The experiment in a line: Isolated perfused mouse heart (Langendorff), 20 min global ischemia and 30 min reperfusion after in vivo treatment. To be noted: saline+1400W; 1400W 10 mg/kg IP 30 minutes before I-R. Here is the method: Adult male outbred ICR mice were supplied by Harlan Inc (Indianapolis, Ind.). Viagra pills (Pfizer Inc) were ground into powder and dissolved in saline. The drug solution was filtered (0.45-μm pore size) before intraperitoneal injection. 1400W, an iNOS inhibitor, was obtained from Alexis. We used an isolated perfused mouse heart model subjected to 20 minutes of global ischemia and 30 minutes of reperfusion (Langendorff mode). Myocardial I-R injury was assessed by measuring infarct size, contractile function, and coronary flow as described previously (Xi, 1999). Twenty-eight mice were randomized into the following 4 groups: (n=6 to 9 per group): (1) saline (0.15 mL IP), (2) sildenafil (0.7 mg/kg IP, equivalent to 50 mg Viagra pill used for patients with erectile dysfunction, given 24 hours before I-R), (3) sildenafil+1400W (10 mg/kg IP, 14 given 30 minutes before I-R), and (4) saline+1400W. Measurement of NOS Isoforms Mice were treated with sildenafil (0.7 mg/kg IP), and their hearts were removed at 15, 30, and 45 minutes and 1, 2, 3, 4, and 24 hours after injection (n=3 per group). Three nontreated hearts were used as controls. Tissue samples were ground under liquid nitrogen and homogenized with TRI Reagent (Molecular Research Center) for extracting total RNA, which was reverse-transcribed into cDNA at 50° C. for 30 minutes using a OneStep reverse transcription (RT)-polymerase chain reaction (PCR) kit from Qiagen. The oligonucleotide primers were synthesized on the basis of published sequences for murine iNOS, eNOS, and GAPDH15 (Integrated DNA Technology). The RT-PCR products were electrophoresed on 1.5% Trisacetate-EDTA agarose gel. The target bands were identified on the basis of their specific size using DNA standards. iNOS and eNOS proteins were measured by Western blots as described previously. 13 In brief, triplicate heart samples were collected 24 hours after saline or sildenafil injection and homogenized in ice-cold RIPA buffer (Upstate Biotechnology). The homogenate was centrifuged at 10,000 g for 10 minutes at 4° C., and supernatant was recovered as the total cellular protein. Total protein (60 μg) from each sample was separated by SDS-PAGE on 10% acrylamide gels, transferred to a polyvinylidine difluoride membrane, and then blocked with 5% nonfat dry milk in Tris-buffered saline. The membrane was subsequently incubated with a rabbit polyclonal antibody (dilution 1:500, Santa Cruz) reacting specifically to iNOS, eNOS, or actin. The secondary antibody was a horseradish peroxidase-conjugated anti-rabbit IgG (1:1000 dilution, Amersham). The membranes were developed using enhanced chemiluminescence and exposed to x-ray film. The mRNA and protein expression were quantified by scanning each of the RT-PCR or Western blot band using a densitometer (Bioquant 98). […]

The next data set has as its system iNOS vs nNOS. Conditions: cited from earlier work.
For data set [2], the system named is neonatal mouse cardiac myocytes. In kind it is cell-based. To be noted: for effect of channel blocker on the protective effect of sildenafil: 5-hydroxydecanoate 100 μM, HMR1098 30 μM. Here is the method: Neonatal mouse myocytes in culture are incubated with 0.5–5 μM of DOX (in the presence or absence of 1 μM sildenafil) for 18 hours. The cells are then incubated with drug free growth medium for an additional 24 hours. Cytotoxicity of DOX is quantitatively assessed by measuring the percentage of cells killed and the amount of creatine kinase (CK) released into the media. In addition, a trypan blue exclusion assay and propidium iodide nuclear stain are used to quantitate cell death. Since DOX induces cardiomyopathy through the release of reactive oxygen species, lipid peroxidation in the cells is also measured as an index of oxidative damage.
Neonatal mouse cardiac myocyte cultures are used for membrane potential studies. Cells in culture are treated with 0.5–5 μM of DOX (in the presence or absence of 1 μM sildenafil) for 18 hours. The cells are then incubated with drug free growth medium for an additional 24 hours. Additional groups are included where the cells are treated with a mitoKATP channel blocker (5-hydroxydecanoate, 100 μM), surface channel blocker (HMR1098, 30 μM) or cyclosporine, a mitochondrial membrane potential (Ψm) blocker (5 μM). For assessment of apoptosis, the TUNEL assay is used, which is an accurate method for distinguishing apoptosis from necrosis by specifically detecting DNA cleavage and chromatin condensation characteristic of apoptosis. Additionally, positive TUNEL staining directly correlates with the more typical biochemical and morphological aspects of apoptosis. Since an understanding of cell morphology is critical for data interpretation, apoptotic morphology is simultaneously assessed according to accepted scientific criteria previously described (Nor-Avi, 1999). The in situ staining of DNA strand breaks detected by the TUNEL assay along with subsequent morphological observation via epifluorescent, confocal, and electron microscopy, provides significant and reliable data regarding the identification of apoptotic cells, even in tissue samples where apoptosis represents a small segment of the population (Manning 1994). In addition, several other key indicators of apoptosis including annexin-V, cytosolic cytochrome c, caspase 3, caspase 8, as well as poly (ADP-ribose) polymerase cleavage in these groups, are measured. Mitochondrial membrane potential (Ψm) using a fluorescent indicator probe, JC-1 (Molecular Probes, Eugene, Oreg.) is measured.

The test system of data set [3] is rabbit heart, ischemia/reperfusion injury. The experiment in a line: In situ rabbit model of myocardial infarction (30 min coronary occlusion, 180 min reperfusion), infarct size by TTC staining. To be noted: control rabbits, 5-HD 5 mg/kg IV 10 min prior to ischemia. In kind it is in vivo.
Data set [4] in a line: Systemic hemodynamics (blood pressure, heart rate, rate pressure product) in rabbits. In kind it is in vivo, rabbit. To be noted: 5-HD 5 mg/kg IV 10 min prior to ischemia, control rabbits.
Data set [5] deals with DOX-related cardiac complications. Conditions: clinical use; cited from earlier work.

As for `CC(=N)NCc1cccc(CN)c1` [1400W], the infarct size in data set [1] came to 24.5±1.0%. For the same compound, in the data set on iNOS vs nNOS, the “selectivity for iNOS vs nNOS” value is recorded as “approximately 40 fold”.

`CC(=N)NCCCC[C@H](N)C(=O)O.Cl` [L-NIL, L-N-6-(1-iminoethyl)lysine hydrochloride]: the “selectivity for iNOS vs nNOS” value in the data set with iNOS vs nNOS is “approximately 40 fold”.

In the case of `CCCCCC(O)CCCC(=O)O` (stereo not shown) [5-HD, 5-hydroxydecanoate], in data set [2], the “effect of channel blocker on the protective effect of sildenafil” value was “abolished”. For the same compound, the infarct size in data set [3] is reported as 33.5±1.9 % of risk area. Besides, the HR in data set [4] (30-min Ischemia) is 185 ± 8 beats/min; in data set [4] (Baseline) it was 171 ± 13^d,e beats/min; in data set [4] (Preischemia), 178 ± 13 beats/min; in data set [4] (Reperfusion (60 min)), 162 ± 8 beats/min; in data set [4] (Reperfusion (120 min)) it was 160 ± 8 beats/min; in data set [4] (Reperfusion (180 min)) it was 160 ± 7 beats/min. For the same compound, the MAP is given as 95 ± 5^a mmHg in data set [4] (30-min Ischemia); 120 ± 4 mmHg in data set [4] (Baseline); 110 ± 6 mmHg in data set [4] (Preischemia); 97 ± 5^a mmHg in data set [4] (Reperfusion (60 min)); 91 ± 5^a mmHg in data set [4] (Reperfusion (120 min)); 91 ± 7^a mmHg in data set [4] (Reperfusion (180 min)). Further, the “RPP (systolic arterial pressure × HR)” value is 19215 ± 999 in data set [4] (30-min Ischemia); 22477 ± 1849 in data set [4] (Baseline); 20977 ± 1373 in data set [4] (Preischemia); 17050 ± 1132 in data set [4] (Reperfusion (60 min)); 15770 ± 984^a in data set [4] (Reperfusion (120 min)); 16300 ± 1503^a in data set [4] (Reperfusion (180 min)).

As for `COc1cccc2c1C(=O)c1c(O)c3c(c(O)c1C2=O)C[C@@](O)(C(=O)CO)C[C@@H]3O[C@H]1C[C@H](N)[C@H](O)[C@H](C)O1` [DOX, Doxorubicin], in data set [2] (0.5–5 μM DOX for 18 hours), the “apoptosis indicators (TUNEL, cytochrome c translocation, caspase-3, PARP cleavage, Ψm dissipation)” value is listed as “TUNEL positivity” and the “necrotic cell death (CK release, uptake of trypan blue)” value is given as “increased necrotic cell death”.

`CSC(N)=NCCC[C@H](N)C(=O)O` [SMT, S-methyl-L-thiocitrulline]: the “selectivity for iNOS vs nNOS” value in the data set on iNOS vs nNOS is reported as “approximately 40 fold”.

`CNC(=S)NS(=O)(=O)c1cc(CCNC(=O)c2cc(Cl)ccc2OC)ccc1OC` [HMR1098]: in data set [2], the “effect of channel blocker on the protective effect of sildenafil” value is recorded as “not by HMR1098”.

On to `C[C@@H](CN1CC(=O)NC(=O)C1)N1CC(=O)NC(=O)C1` [dexrazoxane], for which the “reduction of DOX-related cardiac complications” value in data set [5] is 50%.
